Assays:
[1] = tested on: B16-F1 murine melanoma cells; assay: Intracellular cAMP in B16-F1 melanoma cells; assay type: cell-based
Description: B16-F1 (melanoma cell line) cells from American Type Culture Collection (Manassas, Va.) were seeded into flat bottom 96 well plates at 5×10^4/well and cultured overnight in DMEM (Cambrex, Walkersville, Md.) supplemented with 2 mM glutamine, antibiotics (100 U/ml penicillin and 100 […]) and 10% heat-inactivated fetal bovine serum (Invitrogen, Grand Island, N.Y.). […] Cells were lysed and intracellular cAMP levels were measured by an enzyme immunoassay kit (Amersham Biosciences, Piscataway, N.J.). Forskolin (Sigma, St. Louis, Mo.) at 100 μM served as positive controls.
cAMP levels in B16-F1 melanoma cells after treatment with native α-MSH, RI α-MSH, or a scrambled control peptide were examined. The […] melanoma cell line expresses a high number of MCR1 receptors (3000-4000 receptors/cell) compared with macrophages cell lines which express only 100-200 receptors/cell. Therefore we selected to examine the effect of the RI α-MSH treatment on the melanoma cell line. Murine melanoma B16-F1 cells were treated with native α-MSH, RI α-MSH, or control scrambled peptide at concentrations 1 pg/ml-1 μg/ml. After 30 min, cells were lysed and intracellular cAMP was measured by an enzyme immunoassay. […] However, a higher concentration of RI α-MSH (100 ng/ml) was necessary to increase cAMP compared with native α-MSH which increased cAMP at a 10 pg/ml concentration. This difference in concentration of peptide necessary to increase cAMP levels may be the result of the binding affinity to the MCR1 receptor.
Murine melanoma B16-F1 cells were treated with native α-MSH, RI α-MSH, scrambled peptide control, KPV, or alanine substituted peptides of RI α-MSH at 1 μg/ml (FIG. 7B). […] Peptides designated 810, 811, and 812 have alanine substitutions in the central core tetrapeptide sequence (D-Trp D-Arg D-Phe D-His region; AA 5-8) (variant disclosed in SEQ ID NO:2) proposed to be involved in native α-MSH binding to the melanocortin receptor and its biological activity. […] The residues in the core tetrapeptide (wrfh) (variant disclosed in SEQ ID NO:2) and to a lesser extent, the methionine 4 of RI-MSH are critical for binding to MC1R.
B16-F1 murine melanoma cells were cultured into 96 well plates 5×10^4 cells/well overnight in media with L-glutamine and pen/strep and FBS. Media was removed and new media with IBMX was added to the cells for 1 hr. Cells were then treated with RI α-MSH, or RI α-MSH peptide analogs (890, 891, 892, 893, 894 or 895). Cells were lysed after 30 min using a cAMP assay kit and supernatant were used in the assay. Forskolin at 10 μM served as positive controls.
Intracellular cAMP was measured using a cAMP competition Assay Kit (Amersham Biosciences). All cell lysate samples were diluted 1:100 for analysis.
Murine melanoma B16-F1 cells were treated with RI α-MSH, or RI α-MSH analogs (869, 872, 880, 878, 886 and 890-895) at a concentration range of 10^−4-10^−11 M. cAMP levels from cells treated with RI α-MSH, or RI α-MSH analogs. […] See FIG. 22 for graphical data and Table 2 for EC50 data.

[2] = tested on: C57BL/6 mice; assay: MOG35-55 induced EAE model; assay type: in vivo
[3] = tested on: C57BL/6 mice; assay: MOG35-55 primed mice treated in the priming phase: recall response, cytokines, macrophage markers; assay type: in vivo
Description: C57BL/6 mouse splenocytes and lymph node cells were cultured in 96 well plates 5×10^5 cells/well. MOG35-55 or OVA 257-264 peptide was added to wells at a concentration of 25 μg/ml. Supernatant was collected at 48 hrs after MOG peptide stimulation. After 3 days in culture cells were pulsed with [3H] thymidine at 1 μCi/well for 8 hrs. Thymidine incorporation was measured by cpm.
Total RNA was extracted from tissues with TRIZOL® (Invitrogen, Carlsbad, Calif.). 1 μg of total RNA was reverse transcribed and used in quantitative PCR by using SYBR® green incorporation with reagents from Applied Biosystems (Foster City, Calif.) on an ABI 7900. A cDNA standard was run in each PCR for cytokine targets and message concentrations were normalized to mouse β-actin. […] The sequences for mouse IL-10 primers were forward: […] (SEQ ID NO:29) and reverse: […] (SEQ ID NO:30) (2). The sequences for mouse β-actin primers were: forward […] (SEQ ID NO:31) and reverse […] (SEQ ID NO:32) (3).
Flow cytometric analysis of inflammatory cytokine profiles of mouse serum or cell supernatant were measured using the Cytometric Bead Array Kit (CBA) made by BD Biosciences (San Jose, Calif.). Samples were processed according to the manufacturer's protocol.
On Day 9, spleen and draining lymph nodes were harvested and analyzed for recall responses to MOG35-55 peptide in vitro by [3H] thymidine incorporation.
Cytokine levels were evaluated through a cytometric bead array by flow cytometry.
Spleens from individual mice were harvested on Day 9 and mRNA cytokine expression was quantitated using real time PCR. […] Naïve mice that were not immunized with MOG peptide were used to quantitate baseline mRNA levels of TNF-α and IL-10.
Blood serum samples were also collected on day 9 of the study and evaluated for cytokine levels: TNF-α, MCP-1, IL-12, IL-10, and IL-6 (FIGS. 13C and 13D).

[4] = biological target: MC5R (Homo sapiens, UniProt P33032); assay: Competitive binding with 125I-NDP-MSH, HEK293 membrane preparations, MC5R
Chain of MC5R (P33032 whole entry): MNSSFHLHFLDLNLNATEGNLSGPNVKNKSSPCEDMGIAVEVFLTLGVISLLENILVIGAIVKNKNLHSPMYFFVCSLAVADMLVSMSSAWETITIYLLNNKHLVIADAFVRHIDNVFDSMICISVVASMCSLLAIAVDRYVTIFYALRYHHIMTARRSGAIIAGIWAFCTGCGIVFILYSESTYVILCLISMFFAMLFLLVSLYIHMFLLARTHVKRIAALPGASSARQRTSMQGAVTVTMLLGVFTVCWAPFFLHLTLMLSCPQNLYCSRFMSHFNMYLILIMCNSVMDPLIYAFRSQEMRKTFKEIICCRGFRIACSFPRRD
Description: Binding analysis was done by Cerep laboratories (Paris, France) with coded samples.
The mixtures were filtered through 96-well GFC filters (Millipore, Billerica, Mass.), washed 3 times with binding buffer without BSA, dried and counted.
A competitive binding assay using a MCR panel including MCR 1, 3, 4, and 5 was performed.

[5] = Peptide stability in plasma or PBS in vitro at 37° C.; assay type: in vitro ADME; details: 24 hours
Description: The stability of RI-α-MSH was determined by incubation in plasma or PBS in vitro at 37° C. for 24 hours. Aliquots were taken and proteins precipitated with 2 volumes of acetonitrile. α-MSH was used as a control and bradykinin as an internal standard. After centrifugation, samples were frozen at −80° C. until LC/MS/MS (MRM) analysis using a C18 column separation and positive electrospray ionization mode.

[6] = Example 10, 100 μg/mouse i.p. daily from day 10
[7] = 100 μg i.p. days 2-8, harvested day 9

SMILES: CSCC[C@@H](NC(=O)[C@@H](CCC(=O)O)NC(=O)[C@@H](Cc1c[nH]cn1)NC(=O)[C@@H](Cc1ccccc1)NC(=O)[C@@H](CCCNC(=N)N)NC(=O)[C@@H](Cc1c[nH]c2ccccc12)NC(=O)CNC(=O)[C@@H](CCCCN)NC(=O)[C@H]1CCCN1C(=O)[C@H](NC(C)=O)C(C)C)C(=O)N[C@H](CO)C(=O)N[C@H](Cc1ccc(O)cc1)C(=O)N[C@H](CO)C(N)=O [RI-MSH, vpkGwrfhemsys]
- cAMP levels, dose response (in words) ([1]; 1 pg/ml-1 μg/ml, 30 min, vs untreated or scrambled peptide): significantly increased cAMP levels in a dose dependent manner
- concentration necessary to increase cAMP ([1]; 30 min): 100 ng/mL
- EC50 ([1]; B16-F1 cells, 10^-4-10^-11 M, 30 min, IBMX): 9.7 µM
- cAMP levels (in words) ([1]; peptide at 1 μg/ml): significantly elevated
- spinal cord histopathology (in words) ([2]; 100 μg/mouse i.p. daily from day 10, day 24): lack focal area of inflammation
- TNF-α mRNA in spleen vs PBS (in words) ([2]; Day 1 and Day 4 of treatment): no significant change
- IL-10 mRNA in spleen vs PBS (in words) ([2]; Day 7 of treatment): reduced
- maximum percent incidence of disease [2, 6]: 20%
- mean clinical disease score vs PBS (in words) [2, 6]: significant reduction in the mean clinical disease score
- mean clinical scores (in words) ([2]; Example 11, 30 μg/mouse i.p. daily from day 10): did not have a significant effect
- maximum percent incidence of disease ([2]; Example 11, dexamethasone 2 mg/kg): 35%
- mean clinical disease score vs PBS (in words) ([2]; Example 11, peptides 100 μg/mouse, dexamethasone 2 mg/kg, i.p. daily from day 10): reduction in the mean clinical disease score
- TNF-α mRNA in spleen vs PBS (in words) ([2]; after 7 days of daily treatment): significantly decreased
- IL-10 mRNA in spleen vs PBS (in words) ([2]; earlier timepoints (Day 1 and 4)): no difference
- proliferative recall response of spleen cells to MOG35-55 (in words) [3, 7]: slight reduction in recall responses
- recall response of lymph node cells to MOG peptide (in words) [3, 7]: did not show a significant difference
- expression of CD86, CD40, CD14 on splenic CD11b+ or F4/80+ macrophages (in words) ([3]; 7 days of daily dosing, 100 μg/mouse): no difference in the expression levels
- TNF-α, IFNγ, IL-6 and MCP-1 levels in spleen cell supernatant vs PBS (in words) ([3]; cells stimulated with MOG35-55 in vitro): decrease
- serum IL-6 vs PBS (in words) ([3]; day 9): decrease
- serum IL-10 (in words) ([3]; day 9): no difference
- serum MCP-1 vs PBS (in words) ([3]; day 9): significantly decreased
- serum TNF-α and IL-12 vs PBS (in words) ([3]; day 9): decrease
- IL-10 and TNF-α mRNA in spleen vs PBS (in words) ([3]; priming phase, treated days 2-8, day 9): decreased levels
- Ki ([4]; Ki MC5R, competition with 125I-NDP-MSH, cells noted in μM): ~25 µM
- binding to MCR-5 (in words) ([4]; MCR panel 1, 3, 4, 5): bind only to MCR-1
- stability in PBS (in words) [5]: stable both in PBS and plasma
- stability in plasma (in words) ([5]; in vitro): no detectable degradation over 24 hours
